Test results taken from patent US20100179173A1, “SUBSTITUTED FUSED PYRIMIDINES AS ANTAGONISTS OF GPR105 ACTIVITY” (priority 2007, published 2010).

Target: T1, chimpanzee GPR105 protein (Pan troglodytes, UniProt A0A2J8P2M1)
T1 construct: expressed in transfected cells
T1 sequence (A0A2J8P2M1 1-338): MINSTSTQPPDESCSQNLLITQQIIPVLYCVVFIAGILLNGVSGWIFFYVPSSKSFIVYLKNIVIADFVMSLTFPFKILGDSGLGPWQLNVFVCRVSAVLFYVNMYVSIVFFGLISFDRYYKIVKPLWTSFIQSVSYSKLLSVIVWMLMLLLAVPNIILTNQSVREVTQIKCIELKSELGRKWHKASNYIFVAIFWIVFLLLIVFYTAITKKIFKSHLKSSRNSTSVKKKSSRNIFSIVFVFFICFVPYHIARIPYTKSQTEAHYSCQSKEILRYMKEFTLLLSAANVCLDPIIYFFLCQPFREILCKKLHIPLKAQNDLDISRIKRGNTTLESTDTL
Test: Cell-Binding Assay: inhibition of UDP-glucose-induced Ca2+ signaling (FLIPR) in HEK/GPR105/Gqi5 cells
Format: cell-based
Conditions: HEK cells expressing chimpanzee GPR105 and Gqi5, UDP-glucose agonist at EC80
Description: A stable HEK clonal cell line expressing the chimpanzee GPR105 protein and the chimeric G protein Gqi5 was developed. The chimeric Gqi5 forces the coupling of GPR105 through the Gq (calcium) pathway and allows for monitoring of calcium signaling using a calcium binding fluorescent dye and the FLIPR (fluorometric imaging plate reader, MDS Sciex). […] Cells were incubated overnight at 37° C. and 5% CO2 to form a monolayer. On the following day, 30 μL of fluorescent no-wash dye was added to the cell monolayer and the plate was incubated for 60 min at 37° C., 5% CO2. […] of compound in 100% DMSO was added to cell/dye incubation using acoustic dispensing (Echo™, Labcyte). Following a 20 minute incubation of compound at room temperature, 6.25 μL of UDP-glucose agonist (at EC80) in Hank's Balanced Salt Solution (HBSS) containing 20 mM Hepes was added to cells and Ca^2+ signaling was monitored by FLIPR. Quantitation of the % inhibition of Ca^2+ signaling by antagonist was calculated using the maximum fluorescent signal detected. IC50's for the compounds of structural formula (I) were calculated as follows: […]

| Structure (SMILES) | IC50 [nM] |
| --- | --- |
| CCc1cc(NC(=O)N2CCc3nc(-c4cccnc4)nc(-c4ccccc4C)c3C2)cc(-c2ccc(C(=O)O)cc2)c1 | 4 |
| CCc1cc(Cl)cc(NC(=O)N2CCc3nc(-c4cncnc4)nc(-c4ccccc4C)c3C2)c1 | 10.5 |
| CCc1cccc(NC(=O)N2CCc3nc(-c4ccnc(F)c4)nc(-c4ccccc4C)c3C2)c1 | 12 |
| CCc1cccc(NC(=O)N2CCc3nc(-c4cscc4C)nc(-c4ccccc4C)c3C2)c1 | 65.1 |
| CCc1cc(NC(=O)N2CCc3nc(-c4cccnc4)nc(-c4ccccc4C)c3C2)cc(-c2cn(C)cn2)c1 | 5.6 |
| CCc1cccc(NC(=O)N2CCc3nc(-c4ccc(C#N)nc4)nc(-c4ccccc4C)c3C2)c1 | 7.8 |
| CCc1cc(NC(=O)N2CCc3nc(-c4cccnc4)nc(-c4ccccc4C)c3C2)cc(Oc2ccccc2)c1 | 8.1 |
| CCc1cncc(NC(=O)N2CCc3nc(-c4cccnc4)nc(-c4ccccc4C)c3C2)c1 | 55.7 |
| CCc1cccc(NC(=O)N2CCc3nc(-c4ccnn4C)nc(-c4ccccc4C)c3C2)c1 | 34.5 |
| Cc1ccccc1-c1nc(-c2cccnc2)nc2c1CN(C(=O)Nc1cccc(-c3ccc(C(N)=O)cc3)c1)CC2 | 18.4 |
